Some test systems named below: DLD-1 colon; DMS 114 small cell lung; DMS 273 small cell lung; HOP-18 NSCLC; LXFL 529 NSCLC; M19-MEL melanoma; MALME-3M melanoma; NCI-H23 lung; OVCAR-4 ovarian; RXF-631 renal; SK-MEL-28 melanoma; SNB-78 CNS; XF 498 CNS; KM20L2 colon.
Holding throughout (experiment): DTP human tumour cell line panel, 48 h

In PubChem BioAssay (NCI) one finds TGI and GI50 data, which are given here for twelve compounds.

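The compound was tested at five concentrations on cells cultured in 96-well plates, with a 48-hour exposure period. At the GI50, growth is halved. TGI marks complete inhibition of growth.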

For `NNC(=O)/C(NC(=O)c1ccccc1)=C(\N)c1cccc([N+](=O)[O-])c1`, the TGI with DLD-1 colon, in the test on DMS 114 small cell lung, in the test with DMS 273 small cell lung, in the test with HOP-18 NSCLC, with LXFL 529 NSCLC and with M19-MEL melanoma was over 100 µM in each case. Moreover, the TGI in the test with MALME-3M melanoma, in the test on NCI-H23 lung, in the test on OVCAR-4 ovarian, in the test with RXF-631 renal, with SK-MEL-28 melanoma and in the test with SNB-78 CNS was over 100 µM throughout. The same compound returned a TGI in the test with XF 498 CNS of over 100 µM.
As for `c1cc2c(cc1C1OCC3C(c4ccc5c(c4)OCO5)OCC13)OCO2` (configuration not stated), the TGI in the test on DLD-1 colon, in the test on DMS 114 small cell lung, with HOP-18 NSCLC, in the test on KM20L2 colon, in the test on LXFL 529 NSCLC and with M19-MEL melanoma was over 100 µM each time. In addition, the TGI with MALME-3M melanoma is over 100 µM; in the test on NCI-H23 lung, over 100 µM; in the test on OVCAR-4 ovarian, over 100 µM; with SK-MEL-28 melanoma, over 100 µM; in the test on SNB-78 CNS it was over 100 µM; in the test with XF 498 CNS it was 99.8 µM.
Consider `Cc1ccc(S(=O)(=O)c2ccc(C)cc2[N+](=O)[O-])c([N+](=O)[O-])c1`, for which the TGI with DMS 114 small cell lung, with DMS 273 small cell lung, in the test on KM20L2 colon, with LXFL 529 NSCLC, with M19-MEL melanoma and with MALME-3M melanoma was over 100 µM throughout. In addition, the TGI with NCI-H23 lung, in the test with OVCAR-4 ovarian, in the test with SK-MEL-28 melanoma, in the test on SNB-78 CNS and in the test on XF 498 CNS was over 100 µM throughout.
For `CCOC(=O)/C(C1=NCCN1C)=C(\O)c1ccccc1`, the TGI in the test on DLD-1 colon, in the test with HOP-18 NSCLC, in the test with KM20L2 colon, in the test on LXFL 529 NSCLC, in the test with M19-MEL melanoma and with MALME-3M melanoma was over 100 µM in each case. The TGI in the test on NCI-H23 lung, in the test on OVCAR-4 ovarian, in the test on SK-MEL-28 melanoma, in the test on SNB-78 CNS and in the test on XF 498 CNS was over 100 µM each time.
For the compound `N#Cc1ccc(C2OCC3CC=CCC3CO2)cc1` (configuration not stated), the TGI in the test with DLD-1 colon, in the test with DMS 114 small cell lung, with HOP-18 NSCLC, in the test on KM20L2 colon, with LXFL 529 NSCLC and in the test on M19-MEL melanoma was over 100 µM each time. Besides, the TGI in the test on MALME-3M melanoma, in the test on NCI-H23 lung, in the test with OVCAR-4 ovarian, with RXF-631 renal, in the test on SK-MEL-28 melanoma and in the test with SNB-78 CNS was over 100 µM throughout. This compound also came in with a TGI in the test on XF 498 CNS of over 100 µM.
Regarding `N#CCCC(C#N)(C#N)CCC#N`, the TGI in the test on DMS 114 small cell lung, in the test on DMS 273 small cell lung, with KM20L2 colon, in the test with LXFL 529 NSCLC, with M19-MEL melanoma and in the test with MALME-3M melanoma was over 100 µM throughout. The TGI in the test on NCI-H23 lung, in the test on SK-MEL-28 melanoma and in the test on XF 498 CNS was over 100 µM in each case.
Turning to `O=c1cccccc1[O-].O=c1cccccc1[O-].O=c1cccccc1[O-].[Nd+3]`, the GI50 in the test with DLD-1 colon was 36.4 µM; in the test with DMS 273 small cell lung it was 14.3 µM; in the test on KM20L2 colon it was 31.7 µM; in the test with SNB-78 CNS, 20.6 µM. Also, the TGI in the test with DLD-1 colon, in the test with DMS 273 small cell lung, with KM20L2 colon, with MALME-3M melanoma, in the test on NCI-H23 lung and in the test on OVCAR-4 ovarian was over 100 µM in each case. Also, in the test with SNB-78 CNS, the TGI was over 100 µM.
Regarding `CC1=C2CC[C@@]3(C)C(=CCC3O)C2(C)CCC1=O` (some centres not stated), the TGI with DLD-1 colon, in the test on DMS 114 small cell lung, with DMS 273 small cell lung, with HOP-18 NSCLC, in the test on KM20L2 colon and with LXFL 529 NSCLC was over 100 µM in each case. For the same compound, the TGI in the test on M19-MEL melanoma, in the test with MALME-3M melanoma, in the test with OVCAR-4 ovarian, with RXF-631 renal, in the test with SK-MEL-28 melanoma and in the test on SNB-78 CNS was over 100 µM in each case.
On to `c1ccc2cc(C3NCCc4[nH]cnc43)ccc2c1` (configuration not stated), for which the TGI with DLD-1 colon, with DMS 114 small cell lung, in the test with DMS 273 small cell lung, in the test with HOP-18 NSCLC, in the test with KM20L2 colon and in the test on LXFL 529 NSCLC was over 100 µM each time. Moreover, the TGI with M19-MEL melanoma, with NCI-H23 lung, in the test on OVCAR-4 ovarian, with SK-MEL-28 melanoma and in the test with SNB-78 CNS was over 100 µM each time.
With `C#CN1C(=O)c2c(c(-c3ccccc3)c(-c3ccc(Oc4ccc(-c5c(-c6ccccc6)c6c(c(-c7ccccc7)c5-c5ccccc5)C(=O)N(C#C)C6=O)cc4)cc3)c(-c3ccccc3)c2-c2ccccc2)C1=O`, the TGI in the test with DLD-1 colon, in the test on DMS 114 small cell lung, with DMS 273 small cell lung, in the test with KM20L2 colon, in the test on M19-MEL melanoma and in the test on MALME-3M melanoma was over 100 µM each time. In addition, the TGI was over 100 µM in the test with NCI-H23 lung, over 100 µM in the test on OVCAR-4 ovarian, over 100 µM in the test with SK-MEL-28 melanoma and 72.8 µM with XF 498 CNS.
Consider `COc1cc(C2C(C(=O)NCc3ccccc3)=C(C)NC(C)=C2C(=O)NCc2ccccc2)ccc1O`, for which the TGI with DMS 114 small cell lung, in the test on DMS 273 small cell lung, with KM20L2 colon, in the test on LXFL 529 NSCLC, with M19-MEL melanoma and in the test with MALME-3M melanoma was over 100 µM throughout. Moreover, the TGI in the test with NCI-H23 lung was 90.5 µM; with OVCAR-4 ovarian, over 100 µM; in the test with RXF-631 renal it was over 100 µM; with SK-MEL-28 melanoma, over 100 µM; in the test with SNB-78 CNS, over 100 µM; in the test on XF 498 CNS, over 100 µM.
As to `O=c1[nH]c(=O)n([C@H]2C[C@@H](CO)[C@@H](O)C2)cc1I`, the TGI in the test on DLD-1 colon, in the test with DMS 114 small cell lung, with DMS 273 small cell lung, with HOP-18 NSCLC, in the test on KM20L2 colon and in the test on LXFL 529 NSCLC was over 100 µM throughout. The TGI in the test with M19-MEL melanoma, in the test with MALME-3M melanoma, in the test with NCI-H23 lung, with OVCAR-4 ovarian, in the test on SK-MEL-28 melanoma and with SNB-78 CNS was over 100 µM throughout.
